# Experimental data taken from article PMC4676015, “Variant fatty acid-like molecules Conjugation, novel approaches for extending the stability of therapeutic peptides” (Scientific Reports, 2015).
# Columns and labels:
# GLP-1 receptor (GLP-1R) = biological target: T1, GLP-1 receptor (GLP-1R) (Rattus norvegicus, UniProt P32301); test: GLP-1 receptor binding assay (cellular ELISA)
# T1 construct: endogenous in cells; host or cells: rat INS-1 cells
# T1 sequence (P32301 22-463): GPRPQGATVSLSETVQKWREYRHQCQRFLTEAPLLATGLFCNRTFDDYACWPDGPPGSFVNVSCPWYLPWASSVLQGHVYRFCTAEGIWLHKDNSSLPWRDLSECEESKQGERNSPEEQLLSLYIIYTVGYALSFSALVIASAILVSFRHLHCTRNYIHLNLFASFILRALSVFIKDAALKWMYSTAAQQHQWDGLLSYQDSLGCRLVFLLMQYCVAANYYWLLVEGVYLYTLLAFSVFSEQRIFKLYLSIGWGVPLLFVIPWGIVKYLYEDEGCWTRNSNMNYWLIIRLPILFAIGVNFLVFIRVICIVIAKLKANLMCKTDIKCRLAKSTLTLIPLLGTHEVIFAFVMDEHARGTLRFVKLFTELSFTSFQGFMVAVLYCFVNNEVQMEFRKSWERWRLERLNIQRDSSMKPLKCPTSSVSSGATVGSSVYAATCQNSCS
# Procedure: Cells were rinsed with PBS and fixed with 4% paraformaldehyde (Thermo Scientific) for 10 min at room temperature and quenched for 5 min with 2% glycine in PBS, pH 7.5. […] After a 2 h incubation at 37 °C in a final volume of 100 μl, the excess peptides were washed, and the cells were blocked with 5% BSA (BD Biosciences). […] Colorimetric changes were analyzed by reading the absorbance at 450 nm in a SpectraMax M5 (Molecular Device) microplate reader. The peptide concentration was plotted against UV absorbance, and the Kd was calculated using Origin 7.0 software.
# DPP IV enzyme = biological target: T2, DPP IV enzyme (Homo sapiens, UniProt P27487); test: Stability against DPP IV proteolysis with or without HSA; assay type: in vitro ADME; conditions: DPP IV 0.1 mg/ml, peptide 1 mg/ml, 37 °C, GLP-1 (7–37) ELISA; for degradation in DPP IV proteolysis compared with wild-type GLP-1, within 24 h: 25 mM potassium phosphate, 25 mM KCl, 5 mM MgCl2, pH 7.0, 2% HSA; for detectability of full-length peptide at 24 h: pH 7.0, in the presence of human serum albumin (2%)
# T2 construct: purchased Sigma-Aldrich
# T2 sequence (P27487 whole entry, species assumed): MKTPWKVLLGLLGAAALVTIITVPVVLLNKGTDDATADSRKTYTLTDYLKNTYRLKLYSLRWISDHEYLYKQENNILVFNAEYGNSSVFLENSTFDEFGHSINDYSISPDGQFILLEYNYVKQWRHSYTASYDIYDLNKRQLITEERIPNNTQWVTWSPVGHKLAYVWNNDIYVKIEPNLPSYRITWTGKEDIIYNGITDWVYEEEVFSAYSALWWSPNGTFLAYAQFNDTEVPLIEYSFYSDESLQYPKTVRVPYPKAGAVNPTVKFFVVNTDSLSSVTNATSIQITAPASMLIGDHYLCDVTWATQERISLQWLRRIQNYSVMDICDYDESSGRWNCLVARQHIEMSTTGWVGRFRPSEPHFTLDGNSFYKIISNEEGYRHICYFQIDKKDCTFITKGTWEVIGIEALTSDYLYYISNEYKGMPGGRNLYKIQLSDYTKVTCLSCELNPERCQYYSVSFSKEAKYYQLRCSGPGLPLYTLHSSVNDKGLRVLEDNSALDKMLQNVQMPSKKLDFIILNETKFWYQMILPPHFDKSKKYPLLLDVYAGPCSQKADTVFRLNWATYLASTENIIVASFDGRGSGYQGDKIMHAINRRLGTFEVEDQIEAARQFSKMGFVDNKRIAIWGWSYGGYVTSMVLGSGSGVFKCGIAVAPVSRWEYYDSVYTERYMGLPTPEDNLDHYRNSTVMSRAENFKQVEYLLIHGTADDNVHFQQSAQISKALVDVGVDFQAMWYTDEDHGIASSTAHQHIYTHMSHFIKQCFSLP
# Procedure: DPP IV enzyme (0.1 mg/ml) was dissolved in 25 mM potassium phosphate buffer containing 25 mM potassium chloride and 5 mM magnesium chloride, pH 7.0.
Structure (SMILES),Kd (GLP-1 receptor (GLP-1R)) [µM],"degradation in DPP IV proteolysis compared with wild-type GLP-1, within 24 h (DPP IV enzyme)",detectability of full-length peptide at 24 h (DPP IV enzyme)
CCCCCCCCCCCCNC(=O)CC[C@H](NC(=O)[C@H](CCCCN)NC(=O)[C@H](C)NC(=O)[C@H](C)NC(=O)[C@H](CCC(N)=O)NC(=O)CNC(=O)[C@H](CCC(=O)O)NC(=O)[C@H](CC(C)C)NC(=O)[C@H](Cc1ccc(O)cc1)NC(=O)[C@H](CO)NC(=O)[C@H](CO)NC(=O)[C@@H](NC(=O)[C@H](CC(=O)O)NC(=O)[C@H](CO)NC(=O)[C@@H](NC(=O)[C@H](Cc1ccccc1)NC(=O)[C@@H](NC(=O)CNC(=O)[C@H](CCC(=O)O)NC(=O)[C@H](C)NC(=O)[C@@H](N)Cc1c[nH]cn1)[C@@H](C)O)[C@@H](C)O)C(C)C)C(=O)N[C@@H](Cc1ccccc1)C(=O)N[C@H](C(=O)N[C@@H](C)C(=O)N[C@@H](Cc1c[nH]c2ccccc12)C(=O)N[C@@H](CC(C)C)C(=O)N[C@H](C(=O)N[C@@H](CCCCN)C(=O)NCC(=O)N[C@@H](CCCNC(=N)N)C(=O)NCC(=O)O)C(C)C)[C@@H](C)CC [compound 17],0.0187 ± 0.00213,slower degradation rates,still detectable at 24 h
CCCCCCCCCCCCCCCCNC(=O)CC[C@H](NC(=O)[C@H](CCCCN)NC(=O)[C@H](C)NC(=O)[C@H](C)NC(=O)[C@H](CCC(N)=O)NC(=O)CNC(=O)[C@H](CCC(=O)O)NC(=O)[C@H](CC(C)C)NC(=O)[C@H](Cc1ccc(O)cc1)NC(=O)[C@H](CO)NC(=O)[C@H](CO)NC(=O)[C@@H](NC(=O)[C@H](CC(=O)O)NC(=O)[C@H](CO)NC(=O)[C@@H](NC(=O)[C@H](Cc1ccccc1)NC(=O)[C@@H](NC(=O)CNC(=O)[C@H](CCC(=O)O)NC(=O)[C@H](C)NC(=O)[C@@H](N)Cc1c[nH]cn1)[C@@H](C)O)[C@@H](C)O)C(C)C)C(=O)N[C@@H](Cc1ccccc1)C(=O)N[C@H](C(=O)N[C@@H](C)C(=O)N[C@@H](Cc1c[nH]c2ccccc12)C(=O)N[C@@H](CC(C)C)C(=O)N[C@H](C(=O)N[C@@H](CCCCN)C(=O)NCC(=O)N[C@@H](CCCNC(=N)N)C(=O)NCC(=O)O)C(C)C)[C@@H](C)CC [compound 18],0.0165 ± 0.00217,slower degradation rates,still detectable at 24 h
CCCCCCCCCCCCCCCC(=O)NCCCC[C@H](NC(=O)[C@@H](NC(=O)[C@H](CC(C)C)NC(=O)[C@H](Cc1c[nH]c2ccccc12)NC(=O)[C@H](C)NC(=O)[C@@H](NC(=O)[C@H](Cc1ccccc1)NC(=O)[C@H](CCC(=O)O)NC(=O)[C@H](CCCCN)NC(=O)[C@H](C)NC(=O)[C@H](C)NC(=O)[C@H](CCC(N)=O)NC(=O)CNC(=O)[C@H](CCC(=O)O)NC(=O)[C@H](CC(C)C)NC(=O)[C@H](Cc1ccc(O)cc1)NC(=O)[C@H](CO)NC(=O)[C@H](CO)NC(=O)[C@@H](NC(=O)[C@H](CC(=O)O)NC(=O)[C@H](CO)NC(=O)[C@@H](NC(=O)[C@H](Cc1ccccc1)NC(=O)[C@@H](NC(=O)CNC(=O)[C@H](CCC(=O)O)NC(=O)[C@H](C)NC(=O)[C@@H](N)Cc1c[nH]cn1)[C@@H](C)O)[C@@H](C)O)C(C)C)[C@@H](C)CC)C(C)C)C(=O)NCC(=O)N[C@@H](CCCNC(=N)N)C(=O)NCC(=O)O [compound 6],0.0137 ± 0.00088,slower degradation rates,still detectable at 24 h
